Measurements: the CheMixHub ionic liquid set

Test: xn = mol fraction of the nth substance listed
Details: 100 kPa

CCCCCCCC[n+]1ccccc1.[Br-] + CC(C)C[C@H](N)C(=O)O + O
Details	electrical conductivity [S/m]
288.15 K, x2 = 0.0008942, x1 = 0.006691	1.27
288.15 K, x2 = 0.0008943, x1 = 0.006585	1.26
288.15 K, x2 = 0.0008945, x1 = 0.006321	1.23
288.15 K, x2 = 0.0008948, x1 = 0.005952	1.19
288.15 K, x2 = 0.0008952, x1 = 0.005558	1.15
288.15 K, x2 = 0.0008956, x1 = 0.005126	1.11
288.15 K, x2 = 0.000896, x1 = 0.004648	1.05
288.15 K, x2 = 0.0008965, x1 = 0.00414	0.989
288.15 K, x2 = 0.000897, x1 = 0.003579	0.891
288.15 K, x2 = 0.0008975, x1 = 0.002951	0.778
288.15 K, x2 = 0.0008982, x1 = 0.002257	0.635
288.15 K, x2 = 0.0008986, x1 = 0.001784	0.529
288.15 K, x2 = 0.000899, x1 = 0.001328	0.417
288.15 K, x2 = 0.0008994, x1 = 0.0008528	0.298
288.15 K, x2 = 0.001786, x1 = 0.007009	1.29
288.15 K, x2 = 0.001787, x1 = 0.006296	1.21
288.15 K, x2 = 0.001787, x1 = 0.006626	1.25
288.15 K, x2 = 0.001788, x1 = 0.005936	1.17
288.15 K, x2 = 0.001789, x1 = 0.005553	1.12
288.15 K, x2 = 0.00179, x1 = 0.004654	1.02
288.15 K, x2 = 0.00179, x1 = 0.005124	1.08
288.15 K, x2 = 0.001791, x1 = 0.004138	0.963
288.15 K, x2 = 0.001792, x1 = 0.00359	0.869
288.15 K, x2 = 0.001793, x1 = 0.002944	0.753
288.15 K, x2 = 0.001795, x1 = 0.001946	0.545
288.15 K, x2 = 0.001795, x1 = 0.002309	0.625
288.15 K, x2 = 0.001796, x1 = 0.00149	0.443
288.15 K, x2 = 0.001797, x1 = 0.0009613	0.319
293.15 K, x2 = 0.0008942, x1 = 0.006678	1.44
293.15 K, x2 = 0.0008943, x1 = 0.006573	1.42
293.15 K, x2 = 0.0008945, x1 = 0.00631	1.39
293.15 K, x2 = 0.0008948, x1 = 0.005941	1.35
293.15 K, x2 = 0.0008952, x1 = 0.005547	1.3
293.15 K, x2 = 0.0008956, x1 = 0.005117	1.26
293.15 K, x2 = 0.000896, x1 = 0.004639	1.19
293.15 K, x2 = 0.0008965, x1 = 0.004133	1.12
293.15 K, x2 = 0.000897, x1 = 0.003572	1.01
293.15 K, x2 = 0.0008975, x1 = 0.002945	0.879
293.15 K, x2 = 0.0008982, x1 = 0.002253	0.718
293.15 K, x2 = 0.0008986, x1 = 0.001782	0.597
293.15 K, x2 = 0.000899, x1 = 0.001327	0.47
293.15 K, x2 = 0.0008994, x1 = 0.000851	0.333
293.15 K, x2 = 0.001786, x1 = 0.006996	1.47
293.15 K, x2 = 0.001787, x1 = 0.006286	1.38
293.15 K, x2 = 0.001787, x1 = 0.006613	1.43
293.15 K, x2 = 0.001788, x1 = 0.005926	1.33
293.15 K, x2 = 0.001789, x1 = 0.005542	1.28
293.15 K, x2 = 0.00179, x1 = 0.004645	1.16
293.15 K, x2 = 0.00179, x1 = 0.005113	1.23
293.15 K, x2 = 0.001791, x1 = 0.004131	1.09
293.15 K, x2 = 0.001792, x1 = 0.003584	0.986
293.15 K, x2 = 0.001793, x1 = 0.002938	0.852
293.15 K, x2 = 0.001795, x1 = 0.001937	0.616
293.15 K, x2 = 0.001795, x1 = 0.002304	0.706
293.15 K, x2 = 0.001796, x1 = 0.001487	0.497
293.15 K, x2 = 0.001797, x1 = 0.0009613	0.359
298.15 K, x2 = 0.0008942, x1 = 0.006669	1.62
298.15 K, x2 = 0.0008943, x1 = 0.006564	1.6
298.15 K, x2 = 0.0008945, x1 = 0.006301	1.57
298.15 K, x2 = 0.0008948, x1 = 0.005934	1.52
298.15 K, x2 = 0.0008952, x1 = 0.00554	1.47
298.15 K, x2 = 0.0008956, x1 = 0.00511	1.41
298.15 K, x2 = 0.000896, x1 = 0.004634	1.34
298.15 K, x2 = 0.0008965, x1 = 0.004127	1.25
298.15 K, x2 = 0.000897, x1 = 0.003568	1.13
298.15 K, x2 = 0.0008975, x1 = 0.002942	0.987
298.15 K, x2 = 0.0008982, x1 = 0.002249	0.803
298.15 K, x2 = 0.0008986, x1 = 0.00178	0.668
298.15 K, x2 = 0.000899, x1 = 0.001325	0.525
298.15 K, x2 = 0.0008994, x1 = 0.000851	0.369
298.15 K, x2 = 0.001786, x1 = 0.006987	1.66
298.15 K, x2 = 0.001787, x1 = 0.006277	1.56
298.15 K, x2 = 0.001787, x1 = 0.006604	1.61
298.15 K, x2 = 0.001788, x1 = 0.005918	1.51
298.15 K, x2 = 0.001789, x1 = 0.005535	1.45
298.15 K, x2 = 0.00179, x1 = 0.00464	1.31
298.15 K, x2 = 0.00179, x1 = 0.005107	1.38
298.15 K, x2 = 0.001791, x1 = 0.004127	1.23
298.15 K, x2 = 0.001792, x1 = 0.003579	1.11
298.15 K, x2 = 0.001793, x1 = 0.002934	0.956
298.15 K, x2 = 0.001795, x1 = 0.001935	0.69
298.15 K, x2 = 0.001795, x1 = 0.002302	0.791
298.15 K, x2 = 0.001796, x1 = 0.001485	0.558
298.15 K, x2 = 0.001797, x1 = 0.0009595	0.394
303.15 K, x2 = 0.0008942, x1 = 0.006659	1.8
303.15 K, x2 = 0.0008943, x1 = 0.006555	1.79
303.15 K, x2 = 0.0008945, x1 = 0.006292	1.76
303.15 K, x2 = 0.0008949, x1 = 0.005925	1.71
303.15 K, x2 = 0.0008952, x1 = 0.005533	1.65
303.15 K, x2 = 0.0008956, x1 = 0.005102	1.58
303.15 K, x2 = 0.000896, x1 = 0.004627	1.5
303.15 K, x2 = 0.0008965, x1 = 0.00412	1.4
303.15 K, x2 = 0.000897, x1 = 0.003563	1.26
303.15 K, x2 = 0.0008975, x1 = 0.002936	1.1
303.15 K, x2 = 0.0008982, x1 = 0.002246	0.893
303.15 K, x2 = 0.0008986, x1 = 0.001776	0.741
303.15 K, x2 = 0.000899, x1 = 0.001323	0.582
303.15 K, x2 = 0.0008994, x1 = 0.0008492	0.411
303.15 K, x2 = 0.001786, x1 = 0.006976	1.88
303.15 K, x2 = 0.001787, x1 = 0.006268	1.76
303.15 K, x2 = 0.001787, x1 = 0.006595	1.81
303.15 K, x2 = 0.001788, x1 = 0.005909	1.69
303.15 K, x2 = 0.001789, x1 = 0.005527	1.63
303.15 K, x2 = 0.00179, x1 = 0.004633	1.47
303.15 K, x2 = 0.00179, x1 = 0.0051	1.56
303.15 K, x2 = 0.001791, x1 = 0.00412	1.37
303.15 K, x2 = 0.001792, x1 = 0.003575	1.24
303.15 K, x2 = 0.001793, x1 = 0.002931	1.07
303.15 K, x2 = 0.001795, x1 = 0.001932	0.767
303.15 K, x2 = 0.001795, x1 = 0.002298	0.88
303.15 K, x2 = 0.001796, x1 = 0.001483	0.619
303.15 K, x2 = 0.001797, x1 = 0.0009576	0.441
308.15 K, x2 = 0.0008942, x1 = 0.00665	2.05
308.15 K, x2 = 0.0008943, x1 = 0.006544	2.03
308.15 K, x2 = 0.0008945, x1 = 0.006283	1.98
308.15 K, x2 = 0.0008949, x1 = 0.005916	1.91
308.15 K, x2 = 0.0008952, x1 = 0.005524	1.83
308.15 K, x2 = 0.0008956, x1 = 0.005093	1.76
308.15 K, x2 = 0.000896, x1 = 0.00462	1.66
308.15 K, x2 = 0.0008965, x1 = 0.004115	1.53
308.15 K, x2 = 0.000897, x1 = 0.003557	1.39
308.15 K, x2 = 0.0008975, x1 = 0.002933	1.2
308.15 K, x2 = 0.0008982, x1 = 0.002244	0.971
308.15 K, x2 = 0.0008986, x1 = 0.001775	0.809
308.15 K, x2 = 0.000899, x1 = 0.001321	0.643
308.15 K, x2 = 0.0008994, x1 = 0.0008474	0.461
308.15 K, x2 = 0.001786, x1 = 0.006965	2.11
308.15 K, x2 = 0.001787, x1 = 0.006586	2.04
308.15 K, x2 = 0.001788, x1 = 0.0059	1.9
308.15 K, x2 = 0.001788, x1 = 0.006259	1.97
308.15 K, x2 = 0.001789, x1 = 0.005518	1.82
308.15 K, x2 = 0.00179, x1 = 0.004626	1.64
308.15 K, x2 = 0.00179, x1 = 0.005091	1.73
308.15 K, x2 = 0.001791, x1 = 0.004114	1.51
308.15 K, x2 = 0.001792, x1 = 0.003568	1.37
308.15 K, x2 = 0.001793, x1 = 0.002925	1.17
308.15 K, x2 = 0.001795, x1 = 0.00193	0.836
308.15 K, x2 = 0.001795, x1 = 0.002295	0.962
308.15 K, x2 = 0.001796, x1 = 0.001481	0.683
308.15 K, x2 = 0.001797, x1 = 0.0009558	0.483
